Results from US8093060B2, “Multisite phosphorylated peptide (protein) recognizing compound and detection method, imaging method, alzheimer's disease diagnosing method and reagent kit using the same” (Canon Kabushiki Kaisha, priority 2008, dated 2012).

Tests used:
Format in all cases: binding
[1] = target: T1, Tau204-2162P(i, i+6) (Homo sapiens, UniProt P10636); experiment: ITC measurement of affinity, Tau204-2162P(i, i+6); conditions: compound 1 100 μM, peptide 3.24 mM, 25° C., pH 7.2
T1 construct: made in house; host or cells: chemical solid-phase synthesis
Description: (§1) To determine whether these fluorescence changes are associated with binding, affinity was examined by ITC measurement using, in particular, three peptides of Tau210-2202P, Tau204-2163P and Tau204-2162P(i, i+6). ITC measurement was performed under the following conditions: Tau210-2202P, [compound 1]=100 μM and [peptide]=2 mM; Tau204-2163P, [compound 1]=50 μM and [peptide]=1 mM; Tau204-2162P(i, i+6), [compound 1]=100 μM and [peptide]=3.24 mM; the number of titrations, 24; measurement temperature, 25° C.; pH 7.2; and 50 mM HEPES buffer. FIG. 11 illustrates caloric changes when Tau210-2202P was added to compound 1. FIG. 12 illustrates various thermodynamic parameters obtained from the caloric changes in the three different peptides. The caloric changes associated with the dropping of the peptide was an entropy-driven endothermic process (ΔS>0, ΔH>0). This change can be attributed to dehydration of water molecules hydrated to the compound molecules and the phosphorylated peptides along with the binding. The association constants obtained in Tau210-2202P and Tau204-2163P (K=3.33×10^5 M^−1 and K=2.88×10^5 M^−1, respectively) were similar to the values calculated from the fluorescence changes. […] On the other hand, N=0.51 was obtained in Tau204-2162P(i, i+6), and it appears that two compound molecules individually interact with two phosphate groups on the peptide.

[2] = target: T2, Tau204-2163P (Homo sapiens, UniProt P10636); experiment: ITC measurement of affinity, Tau204-2163P; conditions: compound 1 50 μM, peptide 1 mM, 25° C., pH 7.2, 50 mM HEPES
T2 construct: made in house; host or cells: chemical solid-phase synthesis
Description: as §1

[3] = target: T2, Tau204-2163P; experiment: Fluorescence titration of compound 1 with Tau204-2163P
Description: (§2) The peptide recognizing abilities of compounds 1 and 2 were evaluated by measuring fluorescence spectra. Measurement was performed under conditions of [compound 1 or 2=10 μM, an optical path length of 1 cm, pH 7.2, 50 mM HEPES buffer and 25° C. The excitation wavelength was λex=323 nm, Ex/Em=15 nm/10 nm, except λex=323 nm, Ex/Em=5 nm/10 nm for only Tau210-2202P, for compound 1, and λex=305 nm, Ex/Em=10 nm/12 nm for compound 2. […] When the peptide was excessively added, this change reached saturation. The association constants calculated from the fluorescence changes were in the order of approx. 10^5 M^−1. […] When the fluorescence spectra of compounds 1 and 2 themselves were compared, compound 2 emitted much weaker fluorescence on the short wavelength side and stronger fluorescence on the long wavelength side than compound 1 (FIG. 8B) ([compound 1 or 2=10 μM, λex=305 nm, Ex/Em=10 nm/12 nm, 50 mM HEPES buffer, 1 cm cell, 25° C.).

[4] = target: T3, Tau204-2162P (i, i+4) (Homo sapiens, UniProt P10636); experiment: Fluorescence titration of compound 1 with Tau204-2162P (i, i+4)
T3 construct: made in house; host or cells: chemical solid-phase synthesis
Description: as §2

[5] = Fluorescence titration of compound 1 with phenyl phosphate
Description: as §2

[6] = target: T4, peptides with two phosphate groups with a distance of (i, i+4) or (i, i+6) (Homo sapiens, UniProt P10636); experiment: Fluorescence titration of compound 1 with (i, i+4) or (i, i+6) diphosphorylated tau peptides
T4 construct: made in house; host or cells: chemical solid-phase synthesis
Description: as §2

[7] = target: T5, Tau210-2202P (Homo sapiens, UniProt P10636); experiment: ITC measurement of affinity, Tau210-2202P; conditions: compound 1 100 μM, peptide 2 mM, 25° C., pH 7.2, 50 mM HEPES
T5 construct: made in house; host or cells: chemical solid-phase synthesis
Description: as §1

[8] = target: T5, Tau210-2202P; experiment: Fluorescence spectra titration with Tau210-2202P added dropwise; conditions: compound 10 μM, pH 7.2, 50 mM HEPES buffer, 25° C.
Description: as §2

[9] = test system: peptides with two phosphate groups positioned with a distance of (i, i+2); experiment: Fluorescence titration of compound 1 with (i, i+2) diphosphorylated tau peptides
Description: as §2

[10] = target: T1, Tau204-2162P(i, i+6); experiment: Fluorescence titration of compound 1 with Tau204-2162P (i, i+6)
Description: as §2

[11] = target: T6, phosphorylated tau aggregate (p-Tau) (Homo sapiens, UniProt P10636); experiment: Fluorescence staining of phosphorylated tau aggregate prepared in vitro
T6 construct: made in house; host or cells: Escherichia coli
Description: (§3) Tau proteins (8 μM) expressed by Escherichia coli and heparin (1.6 μM) were incubated at 37° C. for 20 days to prepare a tau aggregate. A phosphorylated tau aggregate was similarly prepared using tau proteins phosphorylated with GSK-3β in vitro. The results of Pro-Q diamond staining after performing SDS-PAGE confirmed that the in-vitro phosphorylation was performed with a phosphorylation degree of 6 mol P/mol Tau.
(§4) 10 μM BODIPY-Zn(Dpa) or 10 μM thioflavine T (may be referred to as ThT) were added to the prepared tau aggregate or phosphorylated tau aggregate. After the addition, the mixture was washed twice with 0.5 mM Zn(NO3)2, and a suspension (0.5 μL) of the stained phosphorylated tau aggregate was air-dried on a cover glass and observed under a confocal laser scanning microscope (OLYMPUS FV-1000, Obj. lens 100×).

[12] = target: T7, nonphosphorylated Tau aggregate (n-Tau) (Homo sapiens, UniProt P10636); experiment: Fluorescence staining of nonphosphorylated tau aggregate prepared in vitro; conditions: 10 μM dye
T7 construct: made in house; host or cells: Escherichia coli
Description: as §3, §4

T6 sequence (P10636 1-441 isoform P10636-8): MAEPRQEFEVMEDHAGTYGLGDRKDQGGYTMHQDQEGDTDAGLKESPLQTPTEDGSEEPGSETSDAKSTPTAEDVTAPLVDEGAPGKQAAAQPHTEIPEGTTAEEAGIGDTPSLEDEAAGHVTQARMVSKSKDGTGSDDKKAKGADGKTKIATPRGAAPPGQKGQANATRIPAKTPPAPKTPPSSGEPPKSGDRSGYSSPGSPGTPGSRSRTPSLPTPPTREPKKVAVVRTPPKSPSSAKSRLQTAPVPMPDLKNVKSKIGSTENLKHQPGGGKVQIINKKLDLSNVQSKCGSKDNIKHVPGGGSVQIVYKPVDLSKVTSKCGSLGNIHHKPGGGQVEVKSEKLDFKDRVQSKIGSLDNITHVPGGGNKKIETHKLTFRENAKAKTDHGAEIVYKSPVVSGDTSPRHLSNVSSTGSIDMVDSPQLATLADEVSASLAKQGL
T7 sequence (P10636 1-441 isoform P10636-8): as above

Structure (SMILES)	stoichiometry N (ITC) [1]	association constant K (ITC) [2] [M⁻¹]	fluorescence change [3]	fluorescence change [4]	fluorescence change [5]	fluorescence change on dropwise addition of peptide ([6]; (i, i+4) or (i, i+6) peptides)	binding to two phosphate groups ([6]; positions (i, i+4) or (i, i+6), summary)	association constant K (ITC) [7] [M⁻¹]	association constants calculated from the fluorescence changes [8]	fluorescence change on dropwise addition of Tau210-2202P [8]	binding constants to the peptides calculated from the fluorescence changes ([9]; (i, i+2) peptides)	fluorescence change on dropwise addition of peptide ([9]; (i, i+2) peptides, compound 1 10 μM)	Ka ([9]; (i, i+2) phosphate groups on tau sequence, summary)	fluorescence change [10]	staining of aggregate ([11]; p-Tau in the presence of pyrophosphoric acid (PPi))	staining of aggregate ([11]; p-Tau, 10 μM dye)	staining of aggregate [12]
CN(Cc1ccccn1)Cc1cc(/C=C/c2ccnc(CN(C)Cc3ccccn3)c2)ccn1.O=[N+]([O-])[O-].O=[N+]([O-])[O-].O=[N+]([O-])[O-].O=[N+]([O-])[O-].[Zn+2].[Zn+2] [compound 1]	0.51	288000	dual wavelength fluorescence changes occurred	no marked fluorescence change occurred	no marked fluorescence change	did not show marked fluorescence changes	did not bind	333000	approx. 10^5 M^−1	dual wavelength fluorescence changes	approx. 10^5	dual wavelength fluorescence changes	~10^5 M^−1	no marked fluorescence change occurred	–	–	–
Cc1ccc2c(c1)sc(-c1ccc(N(C)C)cc1)[n+]2C.[Cl-] [thioflavine T, reference compound]	–	–	–	–	–	–	–	–	–	–	–	–	–	–	stained the aggregate	fluorescence of ThT and that of BODIPY-Zn(Dpa) overlapped	is observed
